Values after ≈ are worked out from the molar mass of the structure shown. Read-outs that look alike come from different tables or passages of the source.
Assays:
Format in all cases: cell-based
[1] = cell viability and proliferation assay (CCK-8/WST8); settings: human, WS1 cells (human-derived fibroblasts, ATCC CRL-1502), mean value with standard deviation
Protocol: WS1 cells (ATCC CRL-1502) were selected as a model system to investigate the effect of PTZ-quinoline hybrid compounds on human-derived fibroblasts. Briefly, cells were cultured in DMEM-High glucose supplemented with 10% fetal bovine serum (FBS) (Carlo Erba Reagents, Milan, Italy), 100 U/mL penicillin, and 100 µg/mL streptomycin at 37 °C with 5% CO2. For experiments, cells were seeded into 96-well plates at 0.7 × 10^4 cells/well, and incubated at 37 °C for 24 h. […] Cell viability was assessed by a WST8-based assay according to the manufacturer’s instructions (CCK-8, Cell Counting Kit-8, Dojindo Molecular Technologies, Rockville, MD, USA). After 48 h of incubation, culture medium was removed from each well, the monolayer was washed with PBS, and 100 µL of fresh medium containing 10 µL of CCK-8 solution was added. Following a 2 h incubation at 37 °C, the OD450nm was read, and data were expressed as the percentage of cell viability relative to the untreated controls. The CC50 was obtained on the corresponding dose–response curves generated as previously reported for IC50 values. Experiments were carried out in triplicate in three biological replicates.

E. coli ATCC 25923 = experiment: broth microdilution antimicrobial assay (MIC); settings: Escherichia coli, ATCC25923, 24 h, range 100–0.19 µM
[2] = test system: clinical isolates of methicillin-resistant S. aureus (MRSA); experiment: broth microdilution IC50 on MRSA clinical isolates; settings: Staphylococcus aureus; five MRSA clinical isolates, range of IC50; read-out: IC50 ranges, MRSA (n = 5)
Description: (§1) Reference bacterial strains of Staphylococcus aureus (ATCC 25923) and Escherichia coli (ATCC 25922) were used in this study as Gram-positive and negative models, respectively. These reference strains were purchased from the American Type Culture Collection (ATCC, Manassas, VA, USA). Clinical isolates, identified by MALDI-TOF MS (Bruker Daltonik, GmbH, Bremen, Germany), were profiled for their antibiotic susceptibility by using the Vitek2 semiautomated system (bioMérieux, Craponne, France) and according to EUCAST (Version 12, 2022, http://www.eucast.org (accessed on 1 January 2022)). The bacterial cultures were routinely grown on 5% blood agar plates (Biolife Italiana S.r.l., Milan, Italy) and were freshly used in the antibacterial assays.
(§2) The minimum inhibitory concentrations (MICs) were determined using the microbroth dilution method in microtiter plates according to the Clinical and Laboratory Standards Institute (CLSI) guidelines. In short, microbial inocula were prepared at 0.5 McFarland in PBS and, subsequently, bacterial suspensions were diluted 1:200 in Mueller–Hinton broth (Sigma-Aldrich, St. Louis, MO, USA), while fungal inoculum was diluted 1:20 in RPMI-1640 medium (Gibco®, ThermoFisher Scientific Inc., Waltham, MA, USA), containing glucose 2%, 0.3% levo-glutamine buffered to pH 7.0 with 0.165 M 3-(N-morpholino)propanesulfonic acid (MOPS). A total of 100 µL of these microbial suspensions was introduced into a 96-well microplate and incubated with 100 µL of the compounds, two-fold serially diluted in the range of 100–0.19 µM. Positive controls (microbial suspensions in regular media), negative controls (only compounds), solvent controls (microbial suspensions incubated with DMSO dilutions), and the reference drug controls were included in the tests. The plate was incubated at 37 °C for 24 h, and subsequently the optical density at 630 nm (OD630nm) was spectrophotometrically measured. Experiments were performed in triplicate with three biological replicates. In addition to MIC, IC50 values were measured for the active compounds. The values, corresponding to the concentration of the compound giving rise to an inhibition of growth of 50%, were obtained by interpolation on dose–response curves generated by plotting the percentages of growth inhibition, relative to the positive control (set to 100% of growth), as a function of the tested concentrations (on a logarithm scale). Statistical analysis was carried out by using GraphPad Prism version 9.4.1 for Windows (GraphPad Software, San Diego, CA, USA, www.graphpad.com).

C. albicans ATCC 10231 = experiment: broth microdilution antifungal assay (MIC); settings: Candida albicans, ATCC10231, 24 h, range 100–0.19 µM
Protocol: The reference strain of Candida albicans (ATCC 10231) was used in the present study and maintained on Sabouraud Dextrose Agar (Biolife Italiana S.r.l., Milan, Italy) before the antifungal assays.
as §2

[3] = test system: P. falciparum CQ-sensitive (CQ-S) D10 strain; experiment: antiplasmodial drug susceptibility assay (pLDH), CQ-sensitive strain; settings: Plasmodium falciparum; P. falciparum D10, 72 h, pLDH; mean value with standard deviation; read-out: IC50 D10 (CQ-S)
Protocol: (§3) P. falciparum cultures were carried out according to Trager and Jensen with slight modifications. The CQ-sensitive strain D10 and the CQ-resistant strain W2 were maintained at 5% hematocrit (human A-positive erythrocytes) in RPMI 1640 medium (EuroClone S.p.A, Milan, Italy) with the addition of 1% AlbuMax (Invitrogen, San Diego, California, USA), 0.01% hypoxanthine, 20 mM Hepes, and 2 mM glutamine at 37 °C in a standard gas mixture (1% O2, 5% CO2, and 94% N2). […] Drugs were placed in 96-well flat-bottomed microplates, and serial dilutions were made. Asynchronous cultures with parasitaemia of 1–1.5% and 1% final hematocrit were aliquoted into the plates and incubated for 72 h at 37 °C. Parasite growth was determined spectrophotometrically (OD650nm) by measuring the activity of the parasite lactate dehydrogenase (pLDH), as described in a modified version of Makler’s method in control- and drug-treated cultures. The antiplasmodial activity is expressed as 50% inhibitory concentrations (IC50); each IC50 value is the mean ± standard deviation of at least three separate experiments performed in duplicate.

S. aureus ATCC 25923 = experiment: broth microdilution antimicrobial assay (MIC, IC50); settings: Staphylococcus aureus, ATCC25923; for MIC: broth microdilution, 24 h, range 100–0.19 µM
Description: as §1, §2

[4] = test system: P. falciparum CQ-resistant (CQ-R) W2 strain; experiment: antiplasmodial drug susceptibility assay (pLDH), CQ-resistant strain; settings: Plasmodium falciparum; P. falciparum W2, 72 h, pLDH; mean value with standard deviation; read-out: IC50 W2 (CQ-R)
Protocol: as §3

[5] = S. aureus ATCC 25923, 24 h, OD630, mean value with standard deviation, read-out: IC50 ATCC 25923
[6] = reference strain, range of IC50, read-out: IC50 ranges, ATCC 25923

SMILES | MIC (E. coli ATCC 25923) [µM] | IC50 [2] [µM] | MIC (C. albicans ATCC 10231) [µM] | IC50 [3] [µM] | IC50 (S. aureus ATCC 25923; [5]) [µM] | MIC (S. aureus ATCC 25923) [µM] | IC50 (S. aureus ATCC 25923; [6]) [µM] | IC50 [4] [µM] | CC50 at 48 h [1] [µM]
Clc1ccc2c(NCCn3cc(CN4c5ccccc5Sc5ccccc54)nn3)ccnc2c1 [Compound 4a, N-(2-(4-((10H-phenothiazin-10-yl)methyl)-1H-1,2,3-triazol-1-yl)ethyl)-7-chloroquinolin-4-amine] | > 100 | 7.75 to 8.98 | > 100 | 0.142 ± 0.02 | 7.49 ± 0.15 | 12.5 (≈ 6.06 µg/mL) | 7.34 to 7.64 | 0.2 ± 0.03 | 17.9 ± 3.23
Clc1ccc2c(c1)N(Cc1cn(CCNc3ccnc4cc(Cl)ccc34)nn1)c1ccccc1S2 [Compound 4b, 7-chloro-N-(2-(4-((2-chloro-10H-phenothiazin-10-yl)methyl)-1H-1,2,3-triazol-1-yl)ethyl)quinolin-4-amine] | > 100 | 4.42 to 6.48 | > 100 | 0.156 ± 0.018 | 4.86 ± 0.89 | 6.25 to 12.5 (≈ 3.25 to 6.49 µg/mL) | 3.97 to 5.75 | 0.154 ± 0.002 | 12.7 ± 3.51

Further lines, with some results ahead:

MIC (E. coli ATCC 25923) [µM] | IC50 [2] [µM] | MIC (C. albicans ATCC 10231) [µM] | IC50 [3] [µM] | IC50 (S. aureus ATCC 25923; [5]) [µM] | MIC (S. aureus ATCC 25923) [µM] | IC50 (S. aureus ATCC 25923; [6]) [µM] | IC50 [4] [µM] | SMILES | CC50 at 48 h [1] [µM]
> 100 | 6.4 to 9.63 | > 100 | 0.292 ± 0.078 | 6.73 ± 1.32 | 12.5 (≈ 6.24 µg/mL) | 5.41 to 8.05 | 0.174 ± 0.025 | Clc1ccc2c(NCCCn3cc(CN4c5ccccc5Sc5ccccc54)nn3)ccnc2c1 [Compound 5a, N-(3-(4-((10H-phenothiazin-10-yl)methyl)-1H-1,2,3-triazol-1-yl)propyl)-7-chloroquinolin-4-amine] | 11.8 ± 0.14
> 100 |  | > 100 | 12.6 ± 0.241 |  | > 100 |  | 2.17 ± 0.243 | Clc1ccc2c(N3CCN(CCCn4cc(CN5c6ccccc6Sc6ccccc65)nn4)CC3)ccnc2c1 [Compound 8, 10-((1-(3-(4-(7-chloroquinolin-4-yl)piperazin-1-yl)propyl)-1H-1,2,3-triazol-4-yl)methyl)-10H-phenothiazine] | > 100
> 100 | 6.18 to 10.3 | > 100 | 0.146 ± 0.006 | 5.03 ± 1.72 | 6.25 to 12.5 (≈ 3.33 to 6.67 µg/mL) | 3.31 to 6.75 | 0.135 ± 0.017 | Clc1ccc2c(c1)N(Cc1cn(CCCNc3ccnc4cc(Cl)ccc34)nn1)c1ccccc1S2 [Compound 5b, 7-chloro-N-(3-(4-((2-chloro-10H-phenothiazin-10-yl)methyl)-1H-1,2,3-triazol-1-yl)propyl)quinolin-4-amine] | 22.1 ± 0.66
